# Source: patent US6486310B1, “Gene encoding the rat dopamine D4 receptor” (Washington University, priority 1993, dated 2002)
# Like-named read-outs stand apart in the source and are kept apart here.
# How the values were obtained:
# [1] = system: D4 transfected MN9D cells; assay: Neurite morphology of D4 transfected MN9D cells; details: 1 μM eticlopride co-cultured with 2 μM quinpirole
# rat D4 receptor = molecular target: T1, rat D4 receptor (Rattus norvegicus, UniProt P30729); assay: biochemical
# T1 sequence (P30729 1-387): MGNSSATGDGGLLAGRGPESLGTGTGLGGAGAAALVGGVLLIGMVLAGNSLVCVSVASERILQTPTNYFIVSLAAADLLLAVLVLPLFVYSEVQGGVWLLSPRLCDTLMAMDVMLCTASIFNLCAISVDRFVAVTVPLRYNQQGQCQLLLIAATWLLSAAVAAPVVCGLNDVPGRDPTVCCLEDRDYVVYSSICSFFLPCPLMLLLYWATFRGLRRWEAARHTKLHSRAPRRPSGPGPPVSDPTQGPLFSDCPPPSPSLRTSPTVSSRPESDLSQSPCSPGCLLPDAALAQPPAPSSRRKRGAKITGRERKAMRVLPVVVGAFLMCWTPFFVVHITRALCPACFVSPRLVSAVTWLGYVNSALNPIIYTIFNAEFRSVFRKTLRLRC
# Text: FIG. 4 is a pharmacological analysis of transfected rat D2444 and D4 receptors and human D3 receptors in CCL1.3 cells. […] FIG. 4B is a graph of [^3H]-spiperone (%) versus log [(+)butaclamol, M]. […] The rat D4 gene, the rat D2444 cDNA and the human D3 cDNA were inserted into the expression vector pcDNA/neo and transfected into CCL1.3 cells. […] Open circles, D4-expressing cells; closed circles, D2444-expressing cells, triangles, D3-expressing cells. Results are shown as mean±SD of percent of specifically bound [^3H]spiperone remaining for an experiment done in triplicate.
# Mouse fibroblasts expressing D2A444 and D4 were grown to 70% confluence and then harvested by scraping. After they had been washed twice in PBS, the cell pellets were resuspended in distilled water and ruptured by homogenization with a Brinkman Polytron, at setting 6 for 10 sec. Nuclei were removed by centrifugation for 5 min at 600 g. Membranes were pelleted by centrifugation for 25 min at 50,000 g. The pellets were resuspended in water and frozen at −70° C. until assayed. For receptor binding assays, samples containing 150 μg of membrane protein were aliquoted into glass test tubes. [^3H]-Spiperone (1 nm) and varying concentrations of competing compounds were added in a final volume of 1 ml and a final buffer of 1.5 Mm CaCl2, 5 mM MgCl2, 5 mM KCl, 120 mM NaCl, 50 mM Tris-HCl, pH 7.4 at 20° C. The tubes were incubated for 15 min at 37° C., and the assays were terminated by addition of 5 ml of ice-cold 50 Mm Tris-HCl buffer (pH 6.9), collected onto glass-fiber filters, and washed twice with the same cold buffer in a modified Brandel cell harvester.
# Transfected cells were enriched by expansion in medium containing G418. The rat D2 cDNA and the human D3 cDNA were expressed in the same cell line.
# [2] = system: D3 transfected MN9D cells; assay: Neurite morphology of D3 transfected MN9D cells; details: 1 μM eticlopride co-cultured with 2 μM quinpirole
# [3] = system: D2A444 transfected MN9D cells; assay: Neurite morphology of D2A444 transfected MN9D cells; details: 1 μM eticlopride co-cultured with 2 μM quinpirole
# [4] = system: tyrosine hydroxylase expressing cells from E15 rat mesencephalon; assay: Morphology of tyrosine hydroxylase positive cells in primary E15 mesencephalon cultures; format: cell-based; details: 2 μM quinpirole, 90 hours, high density culture
# Text: Cultures were then fixed and dopamine synthesizing cells identified by tyrosine hydroxylase immunoreactivity. […] There are five TH positive cells in the control condition and three TH positive cells in the quinpirole condition.
compound,measurement,setting,value
CCc1cc(Cl)c(OC)c(C(=O)NC[C@@H]2CCCN2CC)c1O [eticlopride],block of the effects of quinpirole stimulation,[1],can be blocked
same,Ki,rat D4 receptor; Ki (D4),22.3 ± 1.9 nM
same,Ki,"rat D4 receptor; apparent Ki, D4 receptor",27 ± 2.9 nM
same,block of the effects of quinpirole stimulation,[2],can be blocked
same,block of the effects of quinpirole stimulation,[3],can be blocked
CCCN1CCC[C@@H]2Cc3n[nH]cc3C[C@H]21 [quinpirole],morphology of TH positive cells versus control (in words),[4],"larger, have more branch points and much more extensive growth cone elaboration"
(+)butaclamol [(+) butaclamal],Ki,"rat D4 receptor; read-out: apparent Ki, D4 receptor, transfected CCL1.3 cells, competition of 1 nM [3H]spiperone, mean±SEM",51.3 ± 17.5 nM
